From patent publication US9259411B2, “Neuronal circuit-dependent neuroprotection by interaction between nicotinic receptors” (priority 2006, dated 2016)

How the values were obtained:
[1] = target: α3β4 nAChRs (Homo sapiens, UniProt P30926+P32297); conditions: inhibits the function of α3β4 nAChRs; cited from earlier work
[2] = target: α4β2 nAChRs (Homo sapiens, UniProt P17787+P43681); conditions: inhibits the function of α4β2 nAChRs; cited from earlier work
[3] = target: α3β4 (Homo sapiens, UniProt P30926+P32297); conditions: cited from earlier work
[4] = tested on: Akt Ser473; experiment: Western blot of phosphorylated Akt in CA1 of hippocampal slices; format: cell-based, rat; conditions: 1 μM DHβE alone, 20 min
Protocol: For immunoassays of phosphorylated proteins, in the initial experiments slices were incubated in the same conditions as for PS determination. Later, the slices were incubated by being submerged in a static chamber on culture insets (Millicell; Millipore, Billerica, Mass.) to avoid drying during timed removal of slices.
Slices were prepared and maintained as described above. Treatments started after 2 hr of incubation in ACSF. […] At the corresponding time, each slice was removed and the CA1 region microdissected, frozen on dry ice, and stored at −80° C. until assayed. […] Final detection was carried out with enhance chemiluminescence methodology (Pierce Supersignal West Dura) and the intensity of the signal measured in a gel documentation system (Versa Doc Model 1000; Bio-Rad). […] Normalization of the signal of the phosphokinase to the total amount of proteins, measured by densitometry of the stained membrane, was used as the relevant parameter, which was the level of activity of the kinase. This method was validated with several isolated cells and tissues and determined a linear relationship between the amount of total protein (as measured by densitometry) and total kinases (as measured by chemiluminescence) within the range of proteins employed in these experiments (4-12 μg total protein). […]

[5] = target: α7 (Homo sapiens, UniProt P36544); conditions: cited from earlier work
[6] = tested on: CA1 neurons of hippocampal slices; experiment: Neuroprotection against NMDA excitotoxicity: recovery of population spikes in acute hippocampal slices; format: cell-based, rat; conditions: for Effect on the neuroprotection caused by the substance: 10 μM PD98059: main target ERK-1,2 kinase; for effect of nifedipine on the neuroprotection: 10 μM nifedipine; for effect of PD98059 on the neuroprotection: 50 μM PD98059
Protocol: Male Sprague-Dawley rats (120-200 g) were maintained and sacrificed according to standard procedures reviewed and approved by the Institutional Animal Care and Use Committee. […] Briefly, hippocampi were dissected over ice; transversal 400-μm-thick slices were cut with a manual slicer and immediately transferred to the incubation chamber, thus preserving the neurons in their native environment. The chamber consisted of a temperature-controlled bath surrounding an acrylic plate covered with nylon mesh; the plate was divided into three lanes with independent perfusion. […] C. A bipolar electrode placed in the stratum radiatum was used to stimulate the Shaffer collateral incoming fibers with a constant current for 0.2 msec. The resulting population spike (PS) was recorded in stratum pyramidale with a glass electrode filled with 2 M NaCl, having an impedance of 1-5 M.OMEGA.
About 30 slices from the hippocampi of two rats were distributed equally among three lanes of an incubation chamber. A maximum of seven slices were analyzed per lane for each individual experiment, and on average 21 slices per condition were tested for each experimental condition. […] Because the neurons are maintained in their native environment and in contact with other cells, stimulation with the appropriate stimulus can elicit a PS. One hour after dissection, each slice was stimulated with a stimulus twice the strength required to elicit a threshold PS. This initial response was recorded as PS area (msec×mV) and compared to the final response elicited by the same stimulus strength recorded from the same position after the experimental treatment was finished. The slices were washed for 1 hr with normal ACSF to eliminate lingering drugs and any short-lived effects. […] The percentage of the initial response remaining at the end of the experiment was used as a measure of electrophysiological recovery.
The areas of PSs (mV/msec) were acquired and analyzed with the Labman program. The data were statistically analyzed with SigmaStat v2.03 (SPSS, Chicago, Ill.). One-way analysis of variance (ANOVA) was used whenever the data were distributed normally. […] In these cases, the less powerful nonparametric Kruskal-Wallis one-way ANOVA on ranks was used. The post-hoc test used was the Student-Newman-Keuls test for normally distributed data and Dunn's test for data that was not normally distributed.

[7] = tested on: CA1 neurons of hippocampal slices; conditions: cited from earlier work; for effect of DHβE on the neuroprotection (reported): 1 μM DHβE, 10 nM MLA
[8] = target: NMDA receptors; conditions: against the NMDA receptors; cited from earlier work
[9] = target: α7 nAChRs (Rattus norvegicus, UniProt Q05941); conditions: against the α7 nAChRs; cited from earlier work
α7 nAChRs, sequence (Q05941 23-502): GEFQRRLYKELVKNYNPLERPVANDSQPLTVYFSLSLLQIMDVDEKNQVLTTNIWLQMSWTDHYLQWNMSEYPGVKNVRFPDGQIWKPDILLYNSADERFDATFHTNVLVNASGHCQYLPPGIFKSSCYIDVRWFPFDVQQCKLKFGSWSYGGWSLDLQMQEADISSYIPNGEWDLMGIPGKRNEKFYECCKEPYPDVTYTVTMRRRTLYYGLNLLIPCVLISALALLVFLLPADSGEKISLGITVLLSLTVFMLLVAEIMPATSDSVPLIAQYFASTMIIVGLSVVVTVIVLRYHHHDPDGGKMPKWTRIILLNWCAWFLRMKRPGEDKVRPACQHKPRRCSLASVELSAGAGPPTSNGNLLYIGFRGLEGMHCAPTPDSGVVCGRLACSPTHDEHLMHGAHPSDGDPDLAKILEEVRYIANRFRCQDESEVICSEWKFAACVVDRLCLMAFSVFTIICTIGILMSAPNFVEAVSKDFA

α7, sequence (P36544 23-502): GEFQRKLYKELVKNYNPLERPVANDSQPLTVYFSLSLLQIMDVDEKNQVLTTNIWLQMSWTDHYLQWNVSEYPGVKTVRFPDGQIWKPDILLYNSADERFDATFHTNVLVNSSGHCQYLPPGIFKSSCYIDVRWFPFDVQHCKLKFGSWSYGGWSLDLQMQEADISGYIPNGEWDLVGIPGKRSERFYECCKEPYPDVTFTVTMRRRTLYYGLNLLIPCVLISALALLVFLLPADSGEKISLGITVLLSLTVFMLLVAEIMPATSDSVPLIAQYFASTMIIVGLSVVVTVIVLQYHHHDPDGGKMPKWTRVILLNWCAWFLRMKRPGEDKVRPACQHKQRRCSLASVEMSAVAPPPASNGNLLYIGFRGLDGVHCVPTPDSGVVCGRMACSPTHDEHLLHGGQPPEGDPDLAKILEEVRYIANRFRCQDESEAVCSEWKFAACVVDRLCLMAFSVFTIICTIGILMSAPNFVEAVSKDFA
α4β2 nAChRs, sequence (P43681 29-627 limits assumed): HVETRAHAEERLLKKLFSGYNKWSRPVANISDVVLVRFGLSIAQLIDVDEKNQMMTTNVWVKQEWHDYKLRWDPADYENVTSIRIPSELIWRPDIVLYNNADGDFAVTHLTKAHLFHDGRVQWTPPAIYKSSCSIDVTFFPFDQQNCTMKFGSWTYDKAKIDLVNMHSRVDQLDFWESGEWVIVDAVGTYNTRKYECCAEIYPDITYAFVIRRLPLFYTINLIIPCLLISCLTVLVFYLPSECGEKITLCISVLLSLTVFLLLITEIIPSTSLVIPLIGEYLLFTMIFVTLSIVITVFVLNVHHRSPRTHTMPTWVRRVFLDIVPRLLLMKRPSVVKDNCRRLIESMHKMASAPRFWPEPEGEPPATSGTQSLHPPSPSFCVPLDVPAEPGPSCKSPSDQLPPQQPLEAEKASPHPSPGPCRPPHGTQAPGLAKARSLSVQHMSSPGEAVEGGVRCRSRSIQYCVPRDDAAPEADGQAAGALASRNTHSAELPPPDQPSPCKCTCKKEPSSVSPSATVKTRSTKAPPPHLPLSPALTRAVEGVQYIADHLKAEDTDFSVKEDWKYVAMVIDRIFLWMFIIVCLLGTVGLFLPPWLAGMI
α4β2 nAChRs, sequence (P17787 26-502): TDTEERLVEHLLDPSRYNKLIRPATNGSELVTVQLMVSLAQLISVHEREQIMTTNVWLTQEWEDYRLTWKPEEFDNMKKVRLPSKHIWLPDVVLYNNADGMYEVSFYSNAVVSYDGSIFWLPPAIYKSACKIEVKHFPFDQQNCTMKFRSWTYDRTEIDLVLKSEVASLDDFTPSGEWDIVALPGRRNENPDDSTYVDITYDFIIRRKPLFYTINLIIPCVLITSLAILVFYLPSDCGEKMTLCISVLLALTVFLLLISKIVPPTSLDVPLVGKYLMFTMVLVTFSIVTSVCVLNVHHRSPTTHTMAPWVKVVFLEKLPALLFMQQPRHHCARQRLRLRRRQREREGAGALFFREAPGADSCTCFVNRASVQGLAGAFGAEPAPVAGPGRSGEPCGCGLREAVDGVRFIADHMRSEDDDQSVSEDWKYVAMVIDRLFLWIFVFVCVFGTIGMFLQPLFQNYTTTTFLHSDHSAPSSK
α3β4 nAChRs, sequence (P32297 32-505): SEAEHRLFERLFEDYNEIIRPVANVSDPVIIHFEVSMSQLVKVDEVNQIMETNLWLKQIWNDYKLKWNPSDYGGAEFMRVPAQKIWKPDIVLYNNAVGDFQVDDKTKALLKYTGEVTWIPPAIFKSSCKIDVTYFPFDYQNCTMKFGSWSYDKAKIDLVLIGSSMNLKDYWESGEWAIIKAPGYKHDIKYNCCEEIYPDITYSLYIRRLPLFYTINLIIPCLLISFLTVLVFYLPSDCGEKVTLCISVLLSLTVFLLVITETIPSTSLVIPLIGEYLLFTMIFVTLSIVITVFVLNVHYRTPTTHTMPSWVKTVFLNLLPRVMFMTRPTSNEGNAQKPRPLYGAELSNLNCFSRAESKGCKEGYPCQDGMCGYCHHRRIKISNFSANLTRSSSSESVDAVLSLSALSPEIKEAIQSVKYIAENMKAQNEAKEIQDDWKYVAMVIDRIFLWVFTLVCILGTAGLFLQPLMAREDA
α3β4 nAChRs, sequence (P30926 22-498): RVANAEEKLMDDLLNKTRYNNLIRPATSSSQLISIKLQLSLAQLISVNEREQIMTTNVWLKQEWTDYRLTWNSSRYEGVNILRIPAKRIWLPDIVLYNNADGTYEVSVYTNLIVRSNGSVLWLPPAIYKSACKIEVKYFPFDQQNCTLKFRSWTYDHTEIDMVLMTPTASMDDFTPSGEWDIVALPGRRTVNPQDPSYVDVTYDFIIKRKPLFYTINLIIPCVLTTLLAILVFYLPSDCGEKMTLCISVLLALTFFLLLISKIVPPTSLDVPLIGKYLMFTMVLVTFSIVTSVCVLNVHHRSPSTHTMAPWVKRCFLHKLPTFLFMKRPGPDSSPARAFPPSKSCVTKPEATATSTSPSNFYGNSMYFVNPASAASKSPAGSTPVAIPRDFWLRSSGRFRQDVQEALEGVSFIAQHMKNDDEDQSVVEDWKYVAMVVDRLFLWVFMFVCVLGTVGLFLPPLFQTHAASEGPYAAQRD
α3β4, sequence (P32297 32-505): as the sequence (P32297 32-505) above
α3β4, sequence (P30926 22-498): as the sequence (P30926 22-498) above

Question: With `CC1=CC(O)CC(C)(O)C=CC(C(C)C)CCC(C)=CCC1` [4R, (1S,2E,4R,6R,7E,11E)-cembra-2,7,11-triene-4,6-diol] as the compound, how does the IC50 [1] read?
Answer: 2.2 µM

Question: What about the IC50 [2] of the same compound?
Answer: 19.1 µM

Question: Which Ki [3] does the source give for `CO[C@H]1CC=C2CCN3CCC4=C(CC(=O)OC4)[C@]23C1` [DHβE, Dihydro-Beta-erithroidine] here?
Answer: 218 µM

Question: What about the Akt phosphorylation [4] of the same compound?
Answer: did not affect

Question: What about the Ki [5] of the same compound?
Answer: 25 to 57 µM

Question: Which “Effect on the neuroprotection caused by the substance: 10 μM PD98059” value [6] does the source give for `CCN1C[C@]2(COC(=O)c3ccccc3N3C(=O)C[C@H](C)C3=O)CC[C@H](OC)[C@@]34[C@@H]5C[C@H]6[C@H](OC)[C@@H]5[C@](O)(C[C@@H]6OC)[C@@](O)([C@@H](OC)[C@H]23)[C@@H]14` [MLA, methyllycaconitine] here?
Answer: 0

Question: And the “effect of DHβE on the neuroprotection (reported)” value [7]?
Answer: blocked

Question: What about the “neuroprotection (reported)” value ([7]; literature report) of the same compound?
Answer: neuroprotective

Question: For `CC12CC3CC(C)(C1)CC(N)(C3)C2` [Memantine, memantine], which “effect of DHβE on the neuroprotection” value ([6]; 1 μM DHβE, 2 μM 4R) is on record?
Answer: inhibited

Question: And the “effect of nifedipine on the neuroprotection” value [6]?
Answer: blocked

Question: What about the “effect of PD98059 on the neuroprotection” value ([6]; 2 μM 4R, 1 μM nicotine) of the same compound?
Answer: not inhibited

Question: What about the “shape of the dose-response curve for neuroprotection” value ([6]; FIGS. 20A-B) of the same compound?
Answer: bell-shaped

Question: What about the “concentrations of dose-dependent neuroprotection” value ([6]; effect decreases at higher concentrations) of the same compound?
Answer: below 3 μM

Question: And the “effect of inhibitors of PI3-kinase on the neuroprotection” value ([6]; inhibitors of PI3-kinase)?
Answer: blocked

Question: And the “Effect on the neuroprotection caused by the substance: 10 μM PD98059” value [6]?
Answer: 0

Question: What about the “Effect on the neuroprotection caused by the substance: 0.1 μM Ro31 -8220” value ([6]; main target PKC) of the same compound?
Answer: 0

Question: What about the “effect of vesamicol on the neuroprotection” value ([6]; vesamicol) of the same compound?
Answer: blocked

Question: And the IC50 [8]?
Answer: 5.1 µM

Question: And the IC50 [9]?
Answer: 0.34 µM

Question: What does the source list for `CN1CCCC1c1cccnc1` (stereo not drawn) [Nicotine, nicotine]?
Answer: effect of Ro-31-8220 on the neuroprotection ([6]; 100 nM Ro-31-8220, 2 μM 4R, 1 μM nicotine): did inhibit; effect of APV on the neuroprotection ([6]; 0.4 μM APV, 2:M 4R or 1:M nicotine): only a nonsignificant decrement; effect of KT5720 on the neuroprotection ([6]; 0.5 μM KT5720, 2 μM 4R, 1 μM nicotine): partially decreased; recovery ([6]; 1 μM during 1 hr followed by 0.5 mM NMDA): more than 80%; effect of KN-62 on the neuroprotection ([6]; 9 μM KN-62): did not prevent a significant neuroprotection; effect of nifedipine on the neuroprotection [6]: did not inhibit; effect of DNQX on the neuroprotection ([6]; 50 μM DNQX, 2 μM 4R, 1 μM nicotine): recovered significantly more activity; effect of PD98059 on the neuroprotection ([6]; 2 μM 4R, 1 μM nicotine): annulled; Effect on the neuroprotection caused by the substance: 9 μMKN-62 ([6]; main target CaM kinases): 0; Effect on the neuroprotection caused by the substance: 10 μM Nifedipine ([6]; main target L-type VGCC): 0; Effect on the neuroprotection caused by the substance: 4 μMAPV ([6]; main target NMDA receptors): 0; Effect on the neuroprotection caused by the substance: 50 μM Vesarnicol ([6]; main target Synaptic ACh release): 0; effect of DHβE on the neuroprotection (reported) [7]: blocked

Question: With `Cn1cc(C2=C(c3ccc(Cl)cc3Cl)C(=O)NC2=O)c2ccccc21` [SB 216763] as the compound, how does the neuroprotection ([6]; 100 μM applied 1 hr before or after 0.5 mM NMDA, n=21) read?
Answer: neuroprotective only when applied after NMDA
